According to article PMC6695747, “Primaquine and Chloroquine Fumardiamides as Promising Antiplasmodial Agents” (Molecules, 2019):
Like-named read-outs stand apart in the source and are kept apart here.

Assays:
[1] = system: P. falciparum PfDd2 (CQ-resistant) erythrocytic stages; test: In vitro drug sensitivity assay (HRP2-ELISA) against erythrocytic stages, strain Dd2; assay type: cell-based; settings: Plasmodium falciparum, 72 h, read-out: IC50 PfDd2
Method: (§1) Antiplasmodial activity of fumardiamides 1–6 and 11–16 was tested in a drug sensitivity assay against two laboratory P. falciparum strains (3D7—CQ-sensitive, and Dd2—CQ-resistant), as previously described, using the histidine-rich protein 2 (HRP2) assay. In brief, 96-well plates were pre-coated with the tested compounds in a three-fold dilution before ring stage parasites were added in complete culture medium at a hematocrit of 1.5% and a parasitaemia of 0.05%. After three days of incubation at 37 °C, 5% CO2, and 5% oxygen, plates were frozen until analyzed by HRP2-ELISA. All compounds were evaluated in duplicate in at least two independent experiments. The IC50 was determined by analysing the nonlinear regression of log concentration-response curves using the drc-package v0.9.0 of R v2.6.1 [27].

[2] = system: P. falciparum Pf3D7 (CQ-sensitive) erythrocytic stages; test: In vitro drug sensitivity assay (HRP2-ELISA) against erythrocytic stages, strain 3D7; assay type: cell-based; settings: Plasmodium falciparum, 72 h, read-out: IC50 Pf3D7
Method: as §1

[3] = system: P. berghei hepatic stages; test: In vitro activity against P. berghei hepatic stages (luciferase parasite load in Huh7 cells); assay type: cell-based; settings: Plasmodium berghei, Huh-7, read-out: IC50 P. bergei
Method: In vitro activity of the tested compounds against the liver stage of P. berghei infection was assessed as previously described. […] Next, 10 mM stock solutions of test compounds were prepared in DMSO and were serially diluted in infection medium, i.e., culture medium supplemented with gentamicin (50 μg/mL) and amphotericin B (0.8 μg/mL), in order to obtain the test concentrations.
To assess the effect of each compound concentration in cell viability, at 46 hours post-infection (hpi), cultures were incubated with Alamar Blue (Thermo Fisher Scientific, Waltham, MA, USA), according to the manufacturer’s recommendations. Parasite load was then assessed by the bioluminescence assay (Biotium, Fremont, CA, USA), using the multi-plate reader Infinite M200 (Tecan, Männedorf, Switzerland). Nonlinear regression analysis was employed to fit the normalized results of the dose–response curves, and IC50 values were determined using GraphPad Prism 6.0 (GraphPad Software, La Jolla California USA).

[4] = parameters: method as in PMID 24360369; settings: cited from earlier work
[5] = system: HEK293T (non-tumour embryonic kidney); test: Cytotoxicity MTT assay, HEK293T; assay type: cell-based; settings: Homo sapiens, HEK-293T, read-out: IC50 HEK293T
Method: (§2) The experiments were carried out on 2 human cell lines: MCF-7 (breast carcinoma) and HEK293T (embryonic kidney). MCF-7 and HEK293T cells were cultured as monolayers and maintained in Dulbecco’s modified Eagle medium (DMEM), supplemented with 10% fetal bovine serum (FBS), 2 mM L-glutamine, 100 U/mL penicillin, and 100 μg/mL streptomycin in a humidified atmosphere with 5% CO2 at 37 °C. The panel cell lines were inoculated in parallel onto a series of standard 96-well microtiter plates on day 0, at 1 × 10^4 to 3 × 10^4 cells/mL, depending on the doubling time of a specific cell line. Test compounds were then added in five 10-fold dilutions (10^−8 to 10^−4 M) alone or in combination with 6-AN (c = 1 µM) and incubated for a further 72 hours. Working dilutions were freshly prepared on the day of the testing.
(§3) After 72 hours of incubation, the cell growth rate was evaluated by performing the MTT assay. The absorbance was directly proportional to cell viability. Each test point was performed in quadruplicate in three individual experiments. The IC50 values were calculated from the dose–response curves using linear regression analysis. Each result is a mean value from at least two separate experiments.

[6] = system: MCF-7 (breast adenocarcinoma); test: Cytotoxicity MTT assay, MCF-7; assay type: cell-based; settings: Homo sapiens, read-out: IC50 MCF-7
Method: as §2, §3

[7] = erythrocytic stages, CQ-resistant strain, three days of incubation, HRP2-ELISA
[8] = erythrocytic stages, CQ-sensitive strain, three days of incubation, HRP2-ELISA

SMILES | IC50 [1, 7] | IC50 [2, 8] | IC50 [3] | other results
COc1cc(NC(C)CCCN)c2ncccc2c1 (stereo not shown) [PQ, primaquine] | 1.82 µM | 1.99 µM | 8.4 ± 3.4 µM | –
O=C(/C=C/C(=O)Nc1ccc(Cl)cc1)NCCCCNc1ccnc2cc(Cl)ccc12 [Compound 14, (2E)-N-(4-chlorophenyl)-N’-{4-[(7-chloroquinolin-4-yl)amino]butyl}but-2-enediamide] | 0.89 µM | 0.035 µM | – | melting point: 237 °C (dec.)
O=C(/C=C/C(=O)Nc1ccc(F)cc1)NCCCCNc1ccnc2cc(Cl)ccc12 [Compound 12, (2E)-N’-{4-[(7-chloroquinolin-4-yl)amino]butyl}-N-(4-fluorophenyl)but-2-enediamide] | 1.88 µM | 0.067 µM | – | melting point: 239 °C (dec.)
COc1cc(C)c2c(Oc3cccc(C(F)(F)F)c3)c(OC)cc(NC(C)CCCN)c2n1 (stereo not shown) [TQ, Tafenoquine] | – | – | – | elimination half-life [4]: approximately 15 days
COc1cc(NC(C)CCCNC(=O)/C=C/C(=O)Nc2ccc(C(F)(F)F)cc2)c2ncccc2c1 (stereo not shown) [Compound 6] | 18.4 µM | 13 µM | 0.11 ± 0.02 µM | IC50 ([5]; alone, 72 hours, MTT): ≥ 100 µM; IC50 ([6]; MCF7, alone, 72 hours, MTT): ≥ 100 µM
O=C(/C=C/C(=O)Nc1cccc(C(F)(F)F)c1)NCCCCNc1ccnc2cc(Cl)ccc12 [Compound 15, (2E)-N’-{4-[(7-chloroquinolin-4-yl)amino]butyl}-N-[3-(trifluoromethyl)phenyl]but-2-enediamide] | 3.22 µM | 0.194 µM | – | –
COc1cc(NC(C)CCCNC(=O)/C=C/C(=O)Nc2cccc(F)c2)c2ncccc2c1 (stereo not shown) [Compound 1] | 20 µM | 13.8 µM | – | –
O=C(/C=C/C(=O)Nc1ccc(C(F)(F)F)cc1)NCCCCNc1ccnc2cc(Cl)ccc12 [Compound 16, (2E)-N’-{4-[(7-chloroquinolin-4-yl)amino]butyl}-N-[4-(trifluoromethyl)phenyl]but-2-enediamide] | 0.379 µM | 0.035 µM | – | melting point: 270 °C (dec.)
COc1cc(NC(C)CCCNC(=O)/C=C/C(=O)Nc2cccc(C(F)(F)F)c2)c2ncccc2c1 (stereo not shown) [Compound 5] | 10.7 µM | 13.9 µM | 0.27 ± 0.08 µM | IC50 ([5]; alone, 72 hours, MTT): ≥ 100 µM; IC50 ([6]; MCF7, alone, 72 hours, MTT): ≥ 100 µM
COc1cc(NC(C)CCCNC(=O)/C=C/C(=O)Nc2cccc(Cl)c2)c2ncccc2c1 (stereo not shown) [Compound 3] | 13.6 µM | > 13 µM | 0.27 ± 0.06 µM | –
CCN(CC)CCCC(C)Nc1ccnc2cc(Cl)ccc12 (stereo not shown) [CQ, chloroquine] | – | – | – | IC50 [1]: 0.241 µM; IC50 [2]: 0.0037 µM
O=C(/C=C/C(=O)Nc1cccc(F)c1)NCCCCNc1ccnc2cc(Cl)ccc12 [Compound 11, (2E)-N’-{4-[(7-chloroquinolin-4-yl)amino]butyl}-N-(3-fluorophenyl)but-2-enediamide] | 7.02 µM | 0.144 µM | – | –
COc1cc(NC(C)CCCNC(=O)/C=C/C(=O)Nc2ccc(F)cc2)c2ncccc2c1 (stereo not shown) [Compound 2] | > 13 µM | 7.74 µM | – | –
NC(=O)c1ccc(N)nc1 [Compound 6-AN, 6-aminonicotinamide, reference compound] | – | – | – | IC50 ([5]; 72 h): 10 ± 7 µM; IC50 ([6]; MCF7, 72 h): 2 ± 0.3 µM
O=C(/C=C/C(=O)Nc1cccc(Cl)c1)NCCCCNc1ccnc2cc(Cl)ccc12 [Compound 13, (2E)-N-(3-chlorophenyl)-N’-{4-[(7-chloroquinolin-4-yl)amino]butyl}but-2-enediamide] | 6.96 µM | 0.083 µM | – | –
COc1cc(NC(C)CCCNC(=O)/C=C/C(=O)Nc2ccc(Cl)cc2)c2ncccc2c1 (stereo not shown) [Compound 4] | > 13 µM | > 13 µM | 0.39 ± 0.01 µM | –
